Source: ChEMBL document CHEMBL4382262, “Structurally Simple, Readily Available Peptidomimetic 1-Benzyl-5-methyl-4-( n-octylamino)pyrimidin-2(1 H)-one Exhibited Efficient Cardioprotection in a Myocardial Ischemia (MI) Mouse Model” (J Med Chem, 2018)
Active and inactive are the calls of the source. The rule behind the calls is not given here. Where a SMILES comes first, the peptide text is derived from it.

Experiments:
[1] = molecular target: T1, Toll-like receptor 4 (Rattus norvegicus) (UniProt Q9QX05); test: Inhibition of TLR4 in Sprague-Dawley rat cardiomyocytes assessed as reduction in hypoxia-induced creatine kinase levels preincubated for 1 hr followed by hypoxia for 3 hrs by NADP reduction based colorimetric analysis; type: cell-based
T1 sequence (whole entry): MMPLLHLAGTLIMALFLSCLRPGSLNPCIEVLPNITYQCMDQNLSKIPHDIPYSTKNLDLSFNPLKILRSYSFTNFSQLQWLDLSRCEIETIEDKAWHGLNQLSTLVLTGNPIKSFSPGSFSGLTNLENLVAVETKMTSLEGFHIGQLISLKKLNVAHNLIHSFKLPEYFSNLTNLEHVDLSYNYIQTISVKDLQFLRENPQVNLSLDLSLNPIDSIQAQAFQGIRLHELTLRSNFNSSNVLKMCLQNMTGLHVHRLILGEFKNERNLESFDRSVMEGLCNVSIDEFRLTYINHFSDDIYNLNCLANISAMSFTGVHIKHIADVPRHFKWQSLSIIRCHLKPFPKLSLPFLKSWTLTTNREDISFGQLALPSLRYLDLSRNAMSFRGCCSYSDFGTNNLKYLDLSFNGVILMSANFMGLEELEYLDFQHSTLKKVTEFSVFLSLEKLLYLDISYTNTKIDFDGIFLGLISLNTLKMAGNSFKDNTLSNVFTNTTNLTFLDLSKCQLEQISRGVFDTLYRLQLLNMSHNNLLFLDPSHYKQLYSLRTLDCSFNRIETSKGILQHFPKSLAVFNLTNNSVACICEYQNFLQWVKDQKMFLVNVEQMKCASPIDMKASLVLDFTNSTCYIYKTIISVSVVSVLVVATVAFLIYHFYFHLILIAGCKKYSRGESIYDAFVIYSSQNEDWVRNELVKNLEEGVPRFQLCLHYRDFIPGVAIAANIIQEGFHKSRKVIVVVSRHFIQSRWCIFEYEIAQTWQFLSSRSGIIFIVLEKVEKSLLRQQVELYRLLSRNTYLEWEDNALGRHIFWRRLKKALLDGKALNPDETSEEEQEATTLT

[2] = molecular target: T1, Toll-like receptor 4 (Rattus norvegicus); test: Inhibition of TLR4 in Sprague-Dawley rat cardiomyocytes assessed as reduction in hypoxia-induced LDH release preincubated for 1 hr followed by hypoxia for 3 hrs by NADH detection based colorimetric analysis; type: cell-based
[3] = molecular target: T1, Toll-like receptor 4 (Rattus norvegicus); test: Inhibition of TLR4 in Sprague-Dawley rat cardiomyocytes assessed as reduction in hypoxia-induced creatine kinase levels at 10 uM preincubated for 1 hr followed by hypoxia for 3 hrs by NADP reduction based colorimetric analysis; type: cell-based
[4] = molecular target: T1, Toll-like receptor 4 (Rattus norvegicus); test: Inhibition of TLR4 in Sprague-Dawley rat cardiomyocytes assessed as reduction in hypoxia-induced LDH release at 10 uM preincubated for 1 hr followed by hypoxia for 3 hrs by NADH detection based colorimetric analysis; type: cell-based
[5] = Reduction in hypoxia-induced TLR4 mRNA expression in Sprague-Dawley rat cardiomyocytes at 20 uM preincubated for 1 hr followed by hypoxia for 3 hrs by RT-qPCR analysis relative to untreated control; type: functional, Cardiac muscle cell
[6] = molecular target: T1, Toll-like receptor 4 (Rattus norvegicus); test: Inhibition of TLR4 in Sprague-Dawley rat cardiomyocytes assessed as reduction in hypoxia-induced IL-1beta mRNA expression at 20 uM preincubated for 1 hr followed by hypoxia for 3 hrs by RT-qPCR analysis; type: cell-based
[7] = molecular target: T1, Toll-like receptor 4 (Rattus norvegicus); test: Inhibition of TLR4 in Sprague-Dawley rat cardiomyocytes assessed as reduction in hypoxia-induced creatine kinase levels at 10 to 20 uM preincubated for 1 hr followed by hypoxia for 3 hrs by NADP reduction based colorimetric analysis; type: cell-based
[8] = molecular target: T1, Toll-like receptor 4 (Rattus norvegicus); test: Inhibition of TLR4 in Sprague-Dawley rat cardiomyocytes assessed as reduction in hypoxia-induced LDH release at 10 to 20 uM preincubated for 1 hr followed by hypoxia for 3 hrs by NADH detection based colorimetric analysis; type: cell-based
[9] = molecular target: T1, Toll-like receptor 4 (Rattus norvegicus); test: Inhibition of TLR4 in Sprague-Dawley rat cardiomyocytes assessed as reduction in LPS-induced creatine kinase levels at 10 to 20 uM preincubated for 1 hr followed by LPS stimulation for 5 hrs by NADH detection based colorimetric analysis; type: cell-based
[10] = molecular target: T1, Toll-like receptor 4 (Rattus norvegicus); test: Inhibition of TLR4 in Sprague-Dawley rat cardiomyocytes assessed as reduction in LPS-induced LDH release at 10 to 20 uM preincubated for 1 hr followed by LPS stimulation for 5 hrs by NADH detection based colorimetric analysis; type: cell-based
[11] = molecular target: T1, Toll-like receptor 4 (Rattus norvegicus); test: Inhibition of TLR4 in Sprague Dawley rat cardiomyocytes assessed as reduction in LPS induced LDH levels by measuring NADH levels at 10 to 20 uM preincubated for 1 hr followed by induction of hypoxia measured after 5 hrs by colorimetric analysis; type: cell-based
[12] = tested on: Macrophage; test: Antiinflammatory activity in human macrophages assessed reduction in LPS-induced TLR4 expression at 10 uM pretreated for 30 mins followed by LPS stimulation for 4 hrs by FACS analysis; type: functional, cell-based
[13] = tested on: Macrophage; test: Antiinflammatory activity in human macrophages assessed reduction in TLR4 expression at 10 uM after 4 hrs by FACS analysis; type: functional, cell-based
[14] = molecular target: T1, Toll-like receptor 4 (Rattus norvegicus); test: Inhibition of TLR4 in Sprague-Dawley rat cardiomyocytes assessed as reduction in hypoxia-induced creatine kinase levels at 1 uM preincubated for 1 hr followed by hypoxia for 3 hrs by NADP reduction based colorimetric analysis; type: cell-based
[15] = molecular target: T1, Toll-like receptor 4 (Rattus norvegicus); test: Inhibition of TLR4 in Sprague-Dawley rat cardiomyocytes assessed as reduction in hypoxia-induced LDH release at 1 uM preincubated for 1 hr followed by hypoxia for 3 hrs by NADH detection based colorimetric analysis; type: cell-based
[16] = molecular target: T1, Toll-like receptor 4 (Rattus norvegicus); test: Inhibition of TLR4 in Sprague-Dawley rat cardiomyocytes assessed as reduction in hypoxia-induced creatine kinase levels at 20 uM preincubated for 1 hr followed by hypoxia for 3 hrs by NADP reduction based colorimetric analysis; type: cell-based
[17] = molecular target: T1, Toll-like receptor 4 (Rattus norvegicus); test: Inhibition of TLR4 in Sprague-Dawley rat cardiomyocytes assessed as reduction in hypoxia-induced LDH release at 20 uM preincubated for 1 hr followed by hypoxia for 3 hrs by NADH detection based colorimetric analysis; type: cell-based

Compound	inhibition [1]	inhibition [2]	other results
CCOc1nc(=O)n(Cc2ccc([N+](=O)[O-])cc2)cc1C	inactive	inactive	
Cc1cn(Cc2ccccc2)c(=O)nc1NCCC(C)C			inhibition [3]: Active; inhibition [4]: Active; fold change (FC) [5]: 1.5; fold change (FC) [6]: 1.4
CCOc1nc(=O)n(Cc2ccccc2)cc1C	inactive	inactive	
CC[C@H](C)[C@H](NC(C)=O)C(=O)N[C@@H](Cc1ccccc1)C(=O)N[C@@H](C)C(N)=O (Ac-Ile-Phe-Ala-NH2)	inactive	inactive	
CC(=O)N[C@H](C(=O)N[C@@H](Cc1ccccc1)C(=O)N[C@@H](C)C(=O)N[C@@H](CCC(=O)O)C(N)=O)C(C)C (Ac-VFAE-NH2)	Dose-dependent effect	Dose-dependent effect	inhibition [7]: Active; inhibition [8]: Active; inhibition [9]: Active; inhibition [10]: Active; inhibition [11]: Active; Activity [12]: Active; Activity [13]: Active
CSCC[C@H](NC(=O)[C@H](CCC(=O)O)NC(=O)[C@H](C)NC(C)=O)C(=O)N1CCC[C@H]1C(N)=O (Ac-AEMP-NH2)	Dose-dependent effect	Dose-dependent effect	
CCCCCCCCCCNc1nc(=O)n(Cc2ccccc2)cc1C	inactive	inactive	
CC(=O)N[C@H](C(=O)N[C@@H](Cc1ccccc1)C(=O)N[C@@H](C)C(N)=O)C(C)C (Ac-Val-Phe-Ala-NH2)	inactive	inactive	
H-IVFAEMPCG-OH			fold change (FC) [16]: 5.5; inhibition [3]: inactive; inhibition [4]: inactive; fold change (FC) [17]: 1.8; Activity [12]: Active; Activity [13]: Active
CCOc1nc(=O)n(Cc2ccc(C(F)(F)F)cc2)cc1C	inactive	inactive	
Cc1cn(Cc2ccccc2)c(=O)nc1NCCCN(C)C	inactive	inactive	

Second part, led by results:

inhibition [1]	inhibition [2]	Compound	other results
inactive	inactive	CCOc1ncc(C)c(OCC)n1	
inactive	inactive	CCOc1nc(=O)n(Cc2ccc3ccccc3c2)cc1C	
inactive	inactive	CSCC[C@H](NC(=O)[C@H](CCC(=O)O)NC(C)=O)C(=O)N1CCC[C@H]1C(=O)NC(CS)C(N)=O (single isomer, unassigned)	
inactive	inactive	CCCCCCCCNc1nc(=O)n(Cc2ccc([N+](=O)[O-])cc2)cc1C	
inactive	inactive	Cc1cn(Cc2ccccc2)c(=O)nc1NC1CCCC1	
inactive	inactive	CCC(C)Nc1nc(=O)n(Cc2ccccc2)cc1C (stereo not drawn)	
inactive	inactive	Cc1cn(Cc2ccccc2)c(=O)nc1NCc1ccccc1	
inactive	inactive	CSCC[C@H](NC(C)=O)C(=O)N1CCC[C@H]1C(=O)NC(CS)C(=O)NCC(N)=O (single isomer, unassigned)	
inactive	inactive	CC(=O)N[C@@H](Cc1ccccc1)C(=O)N[C@@H](C)C(=O)N[C@@H](CCC(=O)O)C(N)=O (Ac-Phe-Ala-Glu-NH2)	
Dose-dependent effect	Dose-dependent effect	CC[C@H](C)[C@H](NC(C)=O)C(=O)N[C@H](C(=O)N[C@@H](Cc1ccccc1)C(=O)N[C@@H](C)C(N)=O)C(C)C (Ac-IVFA-NH2)	inhibition [14]: 77%; inhibition [15]: 70%; inhibition [9]: Active; inhibition [10]: Active; inhibition [11]: Active; Activity [12]: Active; Activity [13]: Active
Dose-dependent effect	Dose-dependent effect	CSCC[C@H](NC(=O)[C@H](CCC(=O)O)NC(=O)[C@H](C)NC(=O)[C@H](Cc1ccccc1)NC(C)=O)C(N)=O (Ac-FAEM-NH2)	inhibition [7]: Active; inhibition [8]: Active
inactive	inactive	CCCCCCCCNc1nc(=O)n(Cc2ccc(C(F)(F)F)cc2)cc1C	
